Test results taken from ChEMBL document CHEMBL4184089 (Bioorg Med Chem Lett, 2018).

Experiments:
[1] = target: Sphingosine 1-phosphate receptor 2 (Homo sapiens, UniProt O95136); assay: Displacement of [32P]S1P from recombinant human S1PR2 expressed in Chem1 cell membranes co-expressing Galpha15 pretreated for 30 mins followed by [32P]S1P addition measured after 60 mins by scintillation counting method
[2] = target: Sphingosine 1-phosphate receptor 1 (Homo sapiens, UniProt P21453); assay: Displacement of [32P]S1P from recombinant human S1PR1 expressed in CHOK1 cell membranes pretreated for 30 mins followed by [32P]S1P addition measured after 60 mins by scintillation counting method
[3] = target: Sphingosine 1-phosphate receptor 3 (Homo sapiens, UniProt Q99500); assay: Displacement of [32P]S1P from recombinant human S1PR3 expressed in Chem1 cell membranes co-expressing Galpha15 pretreated for 30 mins followed by [32P]S1P addition measured after 60 mins by scintillation counting method
[4] = target: Sphingosine 1-phosphate receptor 5 (Homo sapiens, UniProt Q9H228); assay: Displacement of [32P]S1P from recombinant human S1PR5 expressed in cell membranes pretreated for 30 mins followed by [32P]S1P addition measured after 60 mins by scintillation counting method
[5] = target: T1, Sphingosine 1-phosphate receptor 4 (Homo sapiens, UniProt O95977); assay: Displacement of [32P]S1P from recombinant human S1PR4 expressed in cell membranes pretreated for 30 mins followed by [32P]S1P addition measured after 60 mins by scintillation counting method
T1 sequence (O95977 whole entry): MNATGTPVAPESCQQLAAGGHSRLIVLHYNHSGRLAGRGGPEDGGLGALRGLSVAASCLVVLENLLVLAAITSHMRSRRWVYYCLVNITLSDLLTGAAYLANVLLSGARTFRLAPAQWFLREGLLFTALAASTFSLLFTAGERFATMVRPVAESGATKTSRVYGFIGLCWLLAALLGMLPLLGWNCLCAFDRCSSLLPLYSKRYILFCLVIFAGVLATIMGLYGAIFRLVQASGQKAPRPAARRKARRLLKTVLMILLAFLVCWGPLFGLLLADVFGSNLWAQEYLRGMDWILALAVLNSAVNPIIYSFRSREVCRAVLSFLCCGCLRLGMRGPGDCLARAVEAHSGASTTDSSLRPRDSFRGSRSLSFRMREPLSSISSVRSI

Chain of Sphingosine 1-phosphate receptor 2 (O95136 whole entry): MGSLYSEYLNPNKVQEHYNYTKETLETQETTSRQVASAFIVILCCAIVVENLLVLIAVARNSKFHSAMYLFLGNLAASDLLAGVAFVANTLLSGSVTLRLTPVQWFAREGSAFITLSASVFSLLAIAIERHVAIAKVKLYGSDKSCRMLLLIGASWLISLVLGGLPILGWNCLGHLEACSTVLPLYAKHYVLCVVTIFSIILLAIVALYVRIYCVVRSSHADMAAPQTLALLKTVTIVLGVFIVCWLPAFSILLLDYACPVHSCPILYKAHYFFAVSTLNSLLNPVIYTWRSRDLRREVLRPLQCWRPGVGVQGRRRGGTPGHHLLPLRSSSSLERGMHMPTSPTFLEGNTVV
Chain of Sphingosine 1-phosphate receptor 1 (P21453 whole entry): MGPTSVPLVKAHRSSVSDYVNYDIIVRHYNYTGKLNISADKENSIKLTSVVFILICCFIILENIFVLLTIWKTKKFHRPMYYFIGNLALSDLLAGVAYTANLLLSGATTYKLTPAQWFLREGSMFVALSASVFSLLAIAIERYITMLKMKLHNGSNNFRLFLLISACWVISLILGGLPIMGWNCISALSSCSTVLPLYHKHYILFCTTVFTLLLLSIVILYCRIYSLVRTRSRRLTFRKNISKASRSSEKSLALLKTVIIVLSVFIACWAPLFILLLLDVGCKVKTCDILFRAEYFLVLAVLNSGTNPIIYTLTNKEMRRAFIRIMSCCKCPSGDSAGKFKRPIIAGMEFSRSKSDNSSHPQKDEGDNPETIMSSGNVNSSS
Chain of Sphingosine 1-phosphate receptor 3 (Q99500 whole entry): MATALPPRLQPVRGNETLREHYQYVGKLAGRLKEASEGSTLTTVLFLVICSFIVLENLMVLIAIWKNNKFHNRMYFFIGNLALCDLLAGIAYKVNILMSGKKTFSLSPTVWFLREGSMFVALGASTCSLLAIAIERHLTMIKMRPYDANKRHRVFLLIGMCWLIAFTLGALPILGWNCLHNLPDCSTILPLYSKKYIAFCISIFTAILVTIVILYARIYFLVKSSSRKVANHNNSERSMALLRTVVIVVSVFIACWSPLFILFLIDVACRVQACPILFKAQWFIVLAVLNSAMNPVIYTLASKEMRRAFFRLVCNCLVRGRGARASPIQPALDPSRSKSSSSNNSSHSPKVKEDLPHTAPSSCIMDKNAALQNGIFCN
Chain of Sphingosine 1-phosphate receptor 5 (Q9H228 whole entry): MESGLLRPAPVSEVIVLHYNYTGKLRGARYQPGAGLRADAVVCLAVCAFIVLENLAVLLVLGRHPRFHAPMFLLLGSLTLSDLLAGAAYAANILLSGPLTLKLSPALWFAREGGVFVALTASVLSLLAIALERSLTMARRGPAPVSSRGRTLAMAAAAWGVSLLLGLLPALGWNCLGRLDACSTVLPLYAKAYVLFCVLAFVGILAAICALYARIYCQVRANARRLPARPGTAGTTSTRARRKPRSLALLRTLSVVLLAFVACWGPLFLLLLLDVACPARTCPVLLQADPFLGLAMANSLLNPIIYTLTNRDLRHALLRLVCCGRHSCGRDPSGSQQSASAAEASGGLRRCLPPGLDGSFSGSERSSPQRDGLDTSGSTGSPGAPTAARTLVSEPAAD

SMILES | IC50 [1] | IC50 [2] | IC50 [3] | IC50 [4] | IC50 [5]
COc1cc(-c2nnc(-c3cc(C(C)C)c4c(C)nn(C)c4n3)[nH]2)cc(Cl)n1 | > 1000 nM |  |  |  | 
COc1cc(-c2nc(-c3cc(C(C)C)c4c(C)nn(C)c4n3)no2)cc(Cl)n1 | > 1000 nM |  |  |  | 
COc1cc(NC(=O)NC(=O)c2cc(C(C)C)c3c(n2)c(C)nn3C)cc(Cl)n1 | > 1000 nM |  |  |  | 
Cc1nn(C)c2nc(NNC(=O)Nc3cc(Cl)nc(OCC4CC4)c3)cc(C(C)C)c12 | 56.5 nM | > 1000 nM | > 1000 nM | > 1000 nM | > 1000 nM
Cc1nn(C)c2nc(C(=O)NC(=O)Nc3cc(Cl)nc(Cl)c3)cc(C(F)(F)F)c12 | > 1000 nM |  |  |  | 
COc1cc(NC(=O)NC(=O)c2cc(C(F)(F)F)c3c(C)n[nH]c3n2)cc(Cl)n1 | > 1000 nM |  |  |  | 
Cc1nn(C)c2nc(NNC(=O)Nc3nc4c(Cl)nc(Cl)cc4[nH]3)cc(C(C)C)c12 | > 1000 nM |  |  |  | 
Cc1nn(C)c2nc(NNC(=O)Nc3cc(Cl)nc(OC(C)C)c3)cc(C(C)C)c12 | 29.1 nM | > 1000 nM | > 1000 nM | > 1000 nM | > 1000 nM
COc1cc(NC(=O)NC(=O)c2cc(C(F)(F)F)c3c(C)nn(C)c3n2)cc(Cl)n1 | > 1000 nM |  |  |  | 
Cc1n[nH]c2nc(C(=O)NC(=O)Nc3cc(Cl)nc(Cl)c3)cc(C(F)(F)F)c12 | > 1000 nM |  |  |  | 
Cc1nn(C)c2nc(NNC(=O)Nc3cc(Cl)nc(Cl)c3)cc(C(C)C)c12 |  | > 1000 nM | > 1000 nM |  | 
Cc1nn(C)c2nc(NNC(=O)Nc3cc(Cl)n4ccnc4c3)cc(C(C)C)c12 | > 1000 nM |  |  |  | 
